Columns and labels:
BA/F3 (insSVD) cells = assay: Ba/F3-EGFR-insSVD cell survival assay (Cell Titer-Glo); format: cell-based; details: Mus musculus, BaF3, 48 h, Table 3a, cell survival, Cell Titer-Glo, with 10 ng/ml EGF, without IL-3
In short: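 Ba/F3 cells stably expressing retroviral EGFR-insSVD or insSVD T790M, grown without IL-3 on 10 ng/ml EGF, 4000 cells/well. Compound pinned in, 48 h at 37° C. Viability by CellTiter-Glo luminescence.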

[1] = biological target: T1, mutEGFR (D770_N771insNPG, T790) (Homo sapiens, UniProt P00533, INS770NPG/T790M); assay: mutEGFR (D770_N771insNPG, T790) kinase assay; format: biochemical; details: Table 2a, D770_N771insNPG
T1 construct: exact insNPG construct not described; in-house EGFR proteins were N-terminal GST fusions from baculovirus/insect cells (borders R669-A1210 given only for WT, insSVD, insASV)
T1 sequence (P00533 with tags, fused parts or gaps INS770NPG/T790M limits assumed): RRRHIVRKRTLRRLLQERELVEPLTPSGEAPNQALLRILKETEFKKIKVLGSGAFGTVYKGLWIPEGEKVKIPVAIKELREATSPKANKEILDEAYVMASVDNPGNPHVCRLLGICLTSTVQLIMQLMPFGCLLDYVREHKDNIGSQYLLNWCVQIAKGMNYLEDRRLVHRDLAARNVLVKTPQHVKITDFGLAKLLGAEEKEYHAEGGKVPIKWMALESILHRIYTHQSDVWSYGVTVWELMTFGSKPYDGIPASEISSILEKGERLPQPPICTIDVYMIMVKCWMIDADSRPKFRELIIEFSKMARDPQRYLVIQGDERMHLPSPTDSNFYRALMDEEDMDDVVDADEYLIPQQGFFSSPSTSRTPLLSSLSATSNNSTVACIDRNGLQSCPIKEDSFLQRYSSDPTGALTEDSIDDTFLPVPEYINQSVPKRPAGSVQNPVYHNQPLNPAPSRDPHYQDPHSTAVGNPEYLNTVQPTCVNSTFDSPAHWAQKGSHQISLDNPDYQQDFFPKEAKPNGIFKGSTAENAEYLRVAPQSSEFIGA
Text: The different EGFR proteins used in the biochemical kinase activity inhibition assays were generated inhouse by expression in insect cells using Baculo Virus system and subsequent purification as described in the following paragraphs.
The cDNAs encoding the various protein sequences from human EGFR human (P00533) were optimized for expression in eukaryotic cells and synthesized by the GeneArt Technology at Life Technologies.

[2] = biological target: T2, mutEGFR (D770_N771insSVD) (Homo sapiens, UniProt P00533, DUP768-770); assay: Exon20-Mutant-EGFR (D770_N771insSVD) kinase assay (TR-FRET); format: biochemical; details: mutEGFR (D770_N771insSVD) kinase assay IC50, Table 2a; D770_N771insSVD; 2 mM ATP
T2 construct: GST-EGFR #3 (SVD between D770 and N771); made in house; host or cells: Sf9 insect cells (baculovirus)
T2 sequence (P00533 with tags, fused parts or gaps DUP768-770): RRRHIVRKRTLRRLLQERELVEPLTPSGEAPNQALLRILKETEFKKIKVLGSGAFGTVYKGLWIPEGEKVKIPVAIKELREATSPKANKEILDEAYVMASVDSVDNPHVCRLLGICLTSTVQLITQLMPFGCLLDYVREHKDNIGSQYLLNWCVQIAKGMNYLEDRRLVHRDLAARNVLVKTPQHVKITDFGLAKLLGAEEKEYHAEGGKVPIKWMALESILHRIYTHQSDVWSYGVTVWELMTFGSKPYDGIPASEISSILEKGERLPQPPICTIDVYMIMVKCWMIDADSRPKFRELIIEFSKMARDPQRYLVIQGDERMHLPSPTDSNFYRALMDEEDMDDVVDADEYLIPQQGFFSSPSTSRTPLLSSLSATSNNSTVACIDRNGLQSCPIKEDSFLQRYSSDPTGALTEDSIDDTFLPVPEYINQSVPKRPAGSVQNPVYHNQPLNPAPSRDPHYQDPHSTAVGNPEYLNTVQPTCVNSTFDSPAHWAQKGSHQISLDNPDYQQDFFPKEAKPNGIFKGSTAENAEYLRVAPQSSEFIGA

SMILES | IC50 (BA/F3 (insSVD) cells) [nM] | IC50 [1] [nM] | IC50 [2] [nM]
C=CC(=O)N1Cc2c(-c3ccncc3)c(-c3cccc(C#N)c3)nn2C[C@@H]1C [Example 127, 3-[(6S)-6-methyl-5-(prop-2-enoyl)-3-(pyridin-4-yl)-4,5,6,7-tetrahydropyrazolo[1,5-a]pyrazin-2-yl]benzonitrile] | 39 | 5.65 | 25.4
C=CC(=O)N1CCn2nc(-c3ccc(OC(F)F)cc3)c(-c3ccncc3)c2C1 [Example 128, 1-{2-[4-(difluoromethoxy)phenyl]-3-(pyridin-4-yl)-6,7-dihydropyrazolo[1,5-a]pyrazin-5(4H)-yl}prop-2-en-1-one] | 139 | 13.8 | 3.62
C=CC(=O)N1CCn2nc(-c3ccc(OC(F)(F)F)cc3)c(-c3ccncc3)c2C1 [Example 129, 1-[3-(pyridin-4-yl)-2-[4-(trifluoromethoxy)phenyl]-6,7-dihydropyrazolo[1,5-a]pyrazin-5(4H)-yl]prop-2-en-1-one] | 106 | 16 | 2.97
C=CC(=O)N1CCn2nc(-c3ccc(OCC)cc3)c(-c3ccncc3)c2C1 [Example 130, 1-[2-(4-ethoxyphenyl)-3-(pyridin-4-yl)-6,7-dihydropyrazolo[1,5-a]pyrazin-5(4H)-yl]prop-2-en-1-one] | 980 | 45.5 | 6.69
C=CC(=O)N1CCn2nc(-c3ccc(C(F)F)cc3)c(-c3ccncc3)c2C1 [Example 131, 1-{2-[4-(difluoromethyl)phenyl]-3-(pyridin-4-yl)-6,7-dihydropyrazolo[1,5-a]pyrazin-5(4H)-yl}prop-2-en-1-one] | 61.3 | 8.01 | 1.79
C=CC(=O)N1CCn2nc(-c3cc(Cl)ccc3F)c(-c3ccncc3)c2C1 [Example 132, 1-[2-(5-chloro-2-fluorophenyl)-3-(pyridin-4-yl)-6,7-dihydropyrazolo[1,5-a]pyrazin-5(4H)-yl]prop-2-en-1-one] | 44.2 | 1.31 | 0.957
C=CC(=O)N1CCn2nc(-c3cccc(Cl)c3)c(-c3ccncc3)c2C1 [Example 133, 1-[2-(3-chlorophenyl)-3-(pyridin-4-yl)-6,7-dihydropyrazolo[1,5-a]pyrazin-5(4H)-yl]prop-2-en-1-one] | 172 | 3.83 | 3.01
C=CC(=O)N1CCn2nc(-c3ccc(C(F)(F)F)c(F)c3)c(-c3ccncc3)c2C1 [Example 134, 1-{2-[3-fluoro-4-(trifluoromethyl)phenyl]-3-(pyridin-4-yl)-6,7-dihydropyrazolo[1,5-a]pyrazin-5(4H)-yl}prop-2-en-1-one] | 65.1 | 9.18 | 2.1
C=CC(=O)N1CCn2nc(-c3ccc(C(F)(F)F)cc3F)c(-c3ccncc3)c2C1 [Example 135, 1-{2-[2-fluoro-4-(trifluoromethyl)phenyl]-3-(pyridin-4-yl)-6,7-dihydropyrazolo[1,5-a]pyrazin-5(4H)-yl}prop-2-en-1-one] | 27.7 | 1.8 | 0.471
C=CC(=O)N1CCn2nc(-c3ccccc3F)c(-c3ccncc3)c2C1 [Example 136, 1-[2-(2-fluorophenyl)-3-(pyridin-4-yl)-6,7-dihydropyrazolo[1,5-a]pyrazin-5(4H)-yl]prop-2-en-1-one] | 68.3 | 4.74 | 1.1
C=CC(=O)N1CCn2nc(-c3ccccc3Cl)c(-c3ccncc3)c2C1 [Example 137, 1-[2-(2-chlorophenyl)-3-(pyridin-4-yl)-6,7-dihydropyrazolo[1,5-a]pyrazin-5(4H)-yl]prop-2-en-1-one] | 144 | 10.8 | 1.6
C=CC(=O)N1CCn2nc(-c3ccc(C)cc3)c(-c3ccncc3)c2C1 [Example 138, 1-[2-(4-methylphenyl)-3-(pyridin-4-yl)-6,7-dihydropyrazolo[1,5-a]pyrazin-5(4H)-yl]prop-2-en-1-one] | 23.2 | 2.93 | 0.981
C=CC(=O)N1CCn2nc(-c3cccc(C)c3)c(-c3ccncc3)c2C1 [Example 139, 1-[2-(3-methylphenyl)-3-(pyridin-4-yl)-6,7-dihydropyrazolo[1,5-a]pyrazin-5(4H)-yl]prop-2-en-1-one] | 25.9 | 1.38 | 0.841
C=CC(=O)N1CCn2nc(-c3ccc(CC)cc3)c(-c3ccncc3)c2C1 [Example 140, 1-[2-(4-ethylphenyl)-3-(pyridin-4-yl)-6,7-dihydropyrazolo[1,5-a]pyrazin-5(4H)-yl]prop-2-en-1-one] | 51.4 | 3.08 | 0.812
C=CC(=O)N1CCn2nc(-c3cccc(C#N)c3)c(-c3ccncc3)c2C1 [Example 141, 3-[5-(prop-2-enoyl)-3-(pyridin-4-yl)-4,5,6,7-tetrahydropyrazolo[1,5-a]pyrazin-2-yl]benzonitrile] | 177 | 19.7 | 32.4
C=CC(=O)N1CCn2nc(-c3ccc(OC)cc3F)c(-c3ccncc3)c2C1 [Example 142, 1-[2-(2-fluoro-4-methoxyphenyl)-3-(pyridin-4-yl)-6,7-dihydropyrazolo[1,5-a]pyrazin-5(4H)-yl]prop-2-en-1-one] | 53 | 2.83 | 0.739
C=CC(=O)N1CCn2nc(-c3ccc(SC(F)(F)F)cc3)c(-c3ccncc3)c2C1 [Example 143, 1-[3-(pyridin-4-yl)-2-{4-[(trifluoromethyl)sulfanyl]phenyl}-6,7-dihydropyrazolo[1,5-a]pyrazin-5(4H)-yl]prop-2-en-1-one] | 673 | 71.9 | 11.5
CN(C)C/C=C/C(=O)N1CCn2nc(-c3ccc(OC(F)F)cc3)c(-c3ccncc3)c2C1 [Example 144, (2E)-1-{2-[4-(difluoromethoxy)phenyl]-3-(pyridin-4-yl)-6,7-dihydropyrazolo[1,5-a]pyrazin-5(4H)-yl}-4-(dimethylamino)but-2-en-1-one] | 1490 | 31 | 8.69
CN(C)C/C=C/C(=O)N1CCn2nc(-c3ccc(OC(F)(F)F)cc3)c(-c3ccncc3)c2C1 [Example 145, (2E)-4-(dimethylamino)-1-[3-(pyridin-4-yl)-2-[4-(trifluoromethoxy)phenyl]-6,7-dihydropyrazolo[1,5-a]pyrazin-5(4H)-yl]but-2-en-1-one] | 607 | 60.4 | 9.01
C#Cc1ccc(-c2nn3c(c2-c2ccncc2)CN(C(=O)/C=C/CN(C)C)CC3)cc1 [Example 146, (2E)-4-(dimethylamino)-1-[2-(4-ethynylphenyl)-3-(pyridin-4-yl)-6,7-dihydropyrazolo[1,5-a]pyrazin-5(4H)-yl]but-2-en-1-one] | 4680 | 1170 | 680
CCOc1ccc(-c2nn3c(c2-c2ccncc2)CN(C(=O)/C=C/CN(C)C)CC3)cc1 [Example 147, (2E)-4-(dimethylamino)-1-[2-(4-ethoxyphenyl)-3-(pyridin-4-yl)-6,7-dihydropyrazolo[1,5-a]pyrazin-5(4H)-yl]but-2-en-1-one] | 2940 | 201 | 36

— patent US20260365653A1, “IRREVERSIBLE MUTEGFR INHIBITORS” (Bayer Aktiengesellschaft, priority 2022, published 2026)
